Results published in ChEMBL document CHEMBL1148212, “New sphingosines from a gorgonian, Pseudopterogorgia australiensis Ridley, of the Indian Ocean” (J Nat Prod, 2004).
Active and inactive are the calls of the source. The calls are words filed in the database; no cut-off is given here.

Assays:
Assay type in all cases: functional, organism-based
[1] = tested on: Bacillus pumilus; experiment: Antimicrobial activity against Bacillus pumilus at 1 mg/mL by cup diffusion method
[2] = tested on: Bacillus subtilis; experiment: Antimicrobial activity against Bacillus subtilis at 1 mg/mL by cup diffusion method
[3] = tested on: Staphylococcus aureus; experiment: Antimicrobial activity against Staphylococcus aureus at 1 mg/mL by cup diffusion method
[4] = tested on: Escherichia coli; experiment: Antimicrobial activity against Escherichia coli at 1 mg/mL by cup diffusion method
[5] = tested on: Proteus vulgaris; experiment: Antimicrobial activity against Proteus vulgaris at 1 mg/mL by cup diffusion method
[6] = tested on: Pseudomonas aeruginosa; experiment: Antimicrobial activity against Pseudomonas aeruginosa at 1 mg/mL by cup diffusion method
[7] = tested on: Candida albicans; experiment: Antimicrobial activity against Candida albicans
[8] = tested on: Aspergillus niger; experiment: Antimicrobial activity against Aspergillus niger

Structure (SMILES)	Activity [1]	Activity [2]	Activity [3]	Activity [4]	Activity [5]	Activity [6]	Activity [7]	Activity [8]
CCCCCCCCCCCCCCCCC[C@@H](O)C(=O)N[C@@H](CO)[C@H](O)[C@H](O)CCCCCCCCCCCCCCC	Active	Active	Active	Active	Active	Active	inactive	inactive
CCCCCCCCCCCCCCCCCCCCCC(=O)N[C@@H](CO)[C@H](O)CCCCCCCCCCCCCCCC	Active	Active	Active	Active	Active	Active	inactive	inactive
CCCCCCCCCCCCC/C=C/[C@@H](O)[C@H](CO)NC(=O)CCCCCCCCCCCCCCCC	Active	Active	Active	Active	Active	Active	inactive	inactive
